# Measurements from patent US4287206A, “Halogen derivatives of 8-hydroxycarboxylic acids; the processes for their preparation and medicaments in which they are present” (priority 1978, dated 1981).
# Columns and labels:
# mice [1] = experiment: Anti-oxotremorine activity in mice (hypothermia induced by oxotremorine); type: in vivo; details: oxotremorine 0.5 mg.kg^-1 i.p.
# Procedure: Anti-oxotremorine activity in mice
# At time 0, the mice receive oxotremorine (0.5 mg.kg^-1) by intraperitoneal administration; after 30 minutes, either distilled water or the medicament according to the invention, obtained in accordance with Example I, is administered to the mice intraperitoneally or orally.
# The mice are then observed and the trembling is rated from 0 to 3 as a function of its intensity, every 10 minutes for 30 minutes. Moreover, the existence of peripheral symptoms (tears, hypersialosis and defections) is observed for 2 hours, in the presence or absence of trembling. The rectal temperature is measured every 30 minutes for 2 hours, after administration of oxotremorine.
# mice [2] = experiment: Motor activity in mice (activity meters with photoelectric cells); type: in vivo; details: Table Ia; 1 mg/kg intraperitoneal; 30 + 10 min
# Procedure: The motor activity was determined with the aid of activity meters having photoelectric cells (Boissier and Simon, Arch. int. Pharmacodyn. 1965, 158, 212-221). A minimum of 10 animals was always used per batch.
# The mice are placed in the activity meter just after the oral or intraperitoneal administration of the product acccording to the invention, obtained in accordance with Example I. The motor activity is measured as from the introduction into the activity meter up to the 60th minute. The counters are read after 30 minutes, then reset to 0 and read every 10 minutes for 30 minutes.
compound,measurement,setting,value
"CC1CC(c2ccc(Cl)cc2)C(c2ccccc2)C(=O)O1 (stereo not drawn) [Example I, trans-4-(4'-chlorophenyl)-6-methyl-3-phenyl-3,4,5,6-tetrahydropyrone-2]",Rectal temperatures °C.,"mice [1]; 1 mg/kg oral, 30 min",29.8 ± 0.40 °C
same,Rectal temperatures °C.,"mice [1]; 1 mg/kg oral, 60 min",27.8 ± 0.65 °C
same,Rectal temperatures °C.,"mice [1]; 1 mg/kg oral, 90 min",27.8 ± 1.36 °C
same,Rectal temperatures °C.,"mice [1]; 1 mg/kg oral, 120 min",28.0 ± 1.65 °C
same,Rectal temperatures °C.,"mice [1]; 2 mg/kg intraperitoneal, 30 min",30.8 ± 0.43 °C
same,Rectal temperatures °C.,"mice [1]; 2 mg/kg intraperitoneal, 60 min",29.1 ± 0.46 °C
same,Rectal temperatures °C.,"mice [1]; 2 mg/kg intraperitoneal, 90 min",29.4 ± 0.52 °C
same,Rectal temperatures °C.,"mice [1]; 2 mg/kg intraperitoneal, 120 min",29.9 ± 0.77 °C
same,Rectal temperatures °C.,"mice [1]; 2 mg/kg oral, 30 min",31.5 ± 0.43 °C
same,Rectal temperatures °C.,"mice [1]; 2 mg/kg oral, 60 min",31.0 ± 0.71 °C
same,Rectal temperatures °C.,"mice [1]; 2 mg/kg oral, 90 min",31.2 ± 0.86 °C
same,Rectal temperatures °C.,"mice [1]; 2 mg/kg oral, 120 min",31.9 ± 1.14 °C
same,Rectal temperatures °C.,"mice [1]; 4 mg/kg intraperitoneal, 30 min",30.2 ± 0.36 °C
same,Rectal temperatures °C.,"mice [1]; 4 mg/kg intraperitoneal, 60 min",31.8 ± 0.42 °C
same,Rectal temperatures °C.,"mice [1]; 4 mg/kg intraperitoneal, 90 min",33.5 ± 0.49 °C
same,Rectal temperatures °C.,"mice [1]; 4 mg/kg intraperitoneal, 120 min",35.7 ± 0.40 °C
same,Rectal temperatures °C.,"mice [1]; 4 mg/kg oral, 30 min",31.8 ± 0.38 °C
same,Rectal temperatures °C.,"mice [1]; 4 mg/kg oral, 60 min",31.0 ± 0.34 °C
same,Rectal temperatures °C.,"mice [1]; 4 mg/kg oral, 90 min",31.6 ± 0.91 °C
same,Rectal temperatures °C.,"mice [1]; 4 mg/kg oral, 120 min",32.4 ± 0.89 °C
same,Rectal temperatures °C.,"mice [1]; 8 mg/kg intraperitoneal, 30 min",32.1 ± 0.52 °C
same,Rectal temperatures °C.,"mice [1]; 8 mg/kg intraperitoneal, 60 min",31.3 ± 0.52 °C
same,Rectal temperatures °C.,"mice [1]; 8 mg/kg intraperitoneal, 90 min",32.2 ± 0.61 °C
same,Rectal temperatures °C.,"mice [1]; 8 mg/kg intraperitoneal, 120 min",33.8 ± 0.91 °C
same,Rectal temperatures °C.,"mice [1]; 8 mg/kg oral, 30 min",32.6 ± 0.32 °C
same,Rectal temperatures °C.,"mice [1]; 8 mg/kg oral, 60 min",32.4 ± 0.29 °C
same,Rectal temperatures °C.,"mice [1]; 8 mg/kg oral, 90 min",32.9 ± 0.38 °C
same,Rectal temperatures °C.,"mice [1]; 8 mg/kg oral, 120 min",33.8 ± 0.56 °C
same,Rectal temperatures °C.,"mice [1]; 16 mg/kg intraperitoneal, 30 min",32.9 ± 0.46 °C
same,Rectal temperatures °C.,"mice [1]; 16 mg/kg intraperitoneal, 60 min",32.0 ± 0.65 °C
same,Rectal temperatures °C.,"mice [1]; 16 mg/kg intraperitoneal, 90 min",32.8 ± 0.60 °C
same,Rectal temperatures °C.,"mice [1]; 16 mg/kg intraperitoneal, 120 min",35.9 ± 0.81 °C
same,Rectal temperatures °C.,"mice [1]; 16 mg/kg oral, 30 min",31.9 ± 0.53 °C
same,Rectal temperatures °C.,"mice [1]; 16 mg/kg oral, 60 min",31.9 ± 0.49 °C
same,Rectal temperatures °C.,"mice [1]; 16 mg/kg oral, 90 min",32.8 ± 0.70 °C
same,Rectal temperatures °C.,"mice [1]; 16 mg/kg oral, 120 min",33.6 ± 0.97 °C
same,Rectal temperatures °C.,"mice [1]; 32 mg/kg intraperitoneal, 30 min",32.0 ± 0.70 °C
same,Rectal temperatures °C.,"mice [1]; 32 mg/kg intraperitoneal, 60 min",31.2 ± 0.73 °C
same,Rectal temperatures °C.,"mice [1]; 32 mg/kg intraperitoneal, 90 min",32.2 ± 0.85 °C
same,Rectal temperatures °C.,"mice [1]; 32 mg/kg intraperitoneal, 120 min",33.2 ± 1.2 °C
same,Rectal temperatures °C.,"mice [1]; 32 mg/kg oral, 30 min",33.0 ± 0.60 °C
same,Rectal temperatures °C.,"mice [1]; 32 mg/kg oral, 60 min",32.7 ± 0.63 °C
same,Rectal temperatures °C.,"mice [1]; 32 mg/kg oral, 90 min",32.8 ± 0.62 °C
same,Rectal temperatures °C.,"mice [1]; 32 mg/kg oral, 120 min",33.7 ± 0.95 °C
same,Rectal temperatures °C.,"mice [1]; 64 mg/kg intraperitoneal, 30 min",34.0 ± 0.87 °C
same,Rectal temperatures °C.,"mice [1]; 64 mg/kg intraperitoneal, 60 min",33.0 ± 1.2 °C
same,Rectal temperatures °C.,"mice [1]; 64 mg/kg intraperitoneal, 90 min",33.7 ± 1.15 °C
same,Rectal temperatures °C.,"mice [1]; 64 mg/kg intraperitoneal, 120 min",34.5 ± 1.0 °C
same,Rectal temperatures °C.,"mice [1]; 64 mg/kg oral, 30 min",32.2 ± 0.32 °C
same,Rectal temperatures °C.,"mice [1]; 64 mg/kg oral, 60 min",31.7 ± 0.52 °C
same,Rectal temperatures °C.,"mice [1]; 64 mg/kg oral, 90 min",32.8 ± 0.73 °C
same,Rectal temperatures °C.,"mice [1]; 64 mg/kg oral, 120 min",34.1 ± 0.62 °C
same,Rectal temperatures °C.,"mice [1]; 128 mg/kg oral, 30 min",34.8 ± 0.80 °C
same,Rectal temperatures °C.,"mice [1]; 128 mg/kg oral, 60 min",34.9 ± 0.59 °C
same,Rectal temperatures °C.,"mice [1]; 128 mg/kg oral, 90 min",36.2 ± 0.82 °C
same,Rectal temperatures °C.,"mice [1]; 128 mg/kg oral, 120 min",37.1 ± 0.77 °C
same,Rectal temperatures °C.,"mice [1]; 256 mg/kg oral, 30 min",32.4 ± 0.63 °C
same,Rectal temperatures °C.,"mice [1]; 256 mg/kg oral, 60 min",31.3 ± 0.73 °C
same,Rectal temperatures °C.,"mice [1]; 256 mg/kg oral, 90 min",32.4 ± 1.07 °C
same,Rectal temperatures °C.,"mice [1]; 256 mg/kg oral, 120 min",33.9 ± 1.30 °C
same,Number of rays passed through by mice,mice [2],76
